Assay [1] concerns MDA-MB-231. Nature of the assay: Cytotoxicity against human MDA-MB-231 cells by MTT assay. The class given is functional, cell-based. In general terms: Formazan colour is commonly taken as a measure of viable cells.
In assay [2] the test system is MCF7. Nature of the assay: Cytotoxicity against human MCF7 cells by MTT assay. The class given is functional, cell-based.
For assay [3], the system named is SK-N-MC. Nature of the assay: Cytotoxicity against human SK-N-MC cells by MTT assay. The assay is classed as functional, cell-based.
For assay [4], the system named is MCF7. As to the kind of experiment: Ratio of etoposide IC50 to compound IC50 for human MCF7 cells by MTT assay. The class given is functional.
Assay [5] deals with MDA-MB-231. Nature of the assay: Ratio of etoposide IC50 to compound IC50 for human MDA-MB-231 cells by MTT assay. The assay is classed as functional.
For assay [6], the system named is SK-N-MC. As to the kind of experiment: Ratio of etoposide IC50 to compound IC50 for human SK-N-MC cells by MTT assay. The assay is classed as functional.

Molecules are shown by their SMILES. ≈ marks a conversion by molar mass, not a printed value.

The term IC50 denotes the concentration that inhibits the measured activity by half. Consider `COc1cccc(/C=C2\CCC/C(=C\c3ccc([N+](=O)[O-])cc3)C2=O)c1OC`, for which the values for the IC50 in assay [1], in assay [2] and in assay [3] were 6.73 µg/mL (≈ 17.7 µM), 13.3 µg/mL (≈ 35.1 µM) and 22.1 µg/mL (≈ 58.4 µM), respectively.

Take `COc1ccc(/C=C2\CCC/C(=C\c3cccc([N+](=O)[O-])c3)C2=O)cc1`: the figures for the concentration for half-maximal inhibition (IC50) in assay [1], in assay [2] and in assay [3] were 44.7 µg/mL (≈ 128 µM), 5.71 µg/mL (≈ 16.3 µM) and 10.4 µg/mL (≈ 29.7 µM), respectively.

For the molecule `COc1cc(/C=C2\CCC/C(=C\c3ccc([N+](=O)[O-])cc3)C2=O)cc(Br)c1O`, the IC50 was > 100 µg/mL in assay [1], 4.93 µg/mL (≈ 11.1 µM) in assay [2] and 16.8 µg/mL (≈ 37.8 µM) in assay [3].

Turning to `CCCCOc1c(Br)cc(/C=C2\CCC/C(=C\c3cccc([N+](=O)[O-])c3)C2=O)cc1OC`, the results for the concentration for half-maximal inhibition (IC50) in assay [1], in assay [2] and in assay [3] were 5.53 µg/mL (≈ 11.1 µM), 5.97 µg/mL (≈ 11.9 µM) and 25.3 µg/mL (≈ 50.7 µM), respectively.

Regarding `COc1cc(/C=C2\CCC/C(=C\c3ccccc3[N+](=O)[O-])C2=O)cc(Br)c1OC`, the IC50 stood at 8.99 µg/mL (≈ 19.6 µM) in assay [1], 3.35 µg/mL (≈ 7.31 µM) in assay [2] and 6.24 µg/mL (≈ 13.6 µM) in assay [3].

On to `COc1cc(/C=C2\CCC/C(=C\c3ccc([N+](=O)[O-])cc3)C2=O)cc(Br)c1OC`, for which the values for the IC50 in assay [1], in assay [2] and in assay [3] were 8.71 µg/mL (≈ 19 µM), 11 µg/mL (≈ 24.1 µM) and 9.86 µg/mL (≈ 21.5 µM), respectively.

With `COc1cc(/C=C2\CCC/C(=C\c3cccc([N+](=O)[O-])c3)C2=O)cc(Br)c1OC`, the IC50 came out at 13.9 µg/mL (≈ 30.4 µM) in assay [1], 4.72 µg/mL (≈ 10.3 µM) in assay [2] and 16.7 µg/mL (≈ 36.4 µM) in assay [3].

Consider `CCOc1c(Br)cc(/C=C2\CCC/C(=C\c3ccc([N+](=O)[O-])cc3)C2=O)cc1OC`, for which the figures for the IC50 in assay [1], in assay [2] and in assay [3] were 34.7 µg/mL (≈ 73.5 µM), 3.08 µg/mL (≈ 6.52 µM) and 3.91 µg/mL (≈ 8.28 µM), respectively.

In the case of `O=C1/C(=C/c2ccc([N+](=O)[O-])cc2)CCC/C1=C\c1cccc([N+](=O)[O-])c1`, the values for the half-inhibitory concentration (IC50) in assay [1], in assay [2] and in assay [3] were 8.85 µg/mL (≈ 24.3 µM), 8.4 µg/mL (≈ 23.1 µM) and 17.9 µg/mL (≈ 49.1 µM), respectively.

Regarding `O=C1/C(=C/c2ccc(Cl)cc2)CCC/C1=C\c1ccc([N+](=O)[O-])cc1`, the results for the half-inhibitory concentration (IC50) in assay [1], in assay [2] and in assay [3] were 12.4 µg/mL (≈ 35.1 µM), 1.02 µg/mL (≈ 2.88 µM) and 14 µg/mL (≈ 39.7 µM), respectively.

Consider `COc1cc(/C=C2\CCC/C(=C\c3ccc([N+](=O)[O-])cc3)C2=O)ccc1O`, for which the values for the concentration for half-maximal inhibition (IC50) in assay [1], in assay [2] and in assay [3] were 13.1 µg/mL (≈ 35.8 µM), 7.05 µg/mL (≈ 19.3 µM) and 48 µg/mL (≈ 131 µM), respectively.

Take `COc1cccc(/C=C2\CCC/C(=C\c3ccccc3[N+](=O)[O-])C2=O)c1`: the IC50 was found to be 14.3 µg/mL (≈ 41 µM) in assay [1], 5.62 µg/mL (≈ 16.1 µM) in assay [2] and 4.49 µg/mL (≈ 12.9 µM) in assay [3].

Consider `CCCOc1c(Br)cc(/C=C2\CCC/C(=C\c3cccc([N+](=O)[O-])c3)C2=O)cc1OC`, for which the “Ratio IC50” value in assay [4], in assay [5] and in assay [6] was 7 each time. The half-maximal inhibitory concentration (IC50) in assay [1] is 2.99 µg/mL (≈ 6.15 µM); in assay [2], 0.85 µg/mL (≈ 1.75 µM); in assay [3], 1.51 µg/mL (≈ 3.1 µM).

On to `COc1cccc(/C=C2\CCC/C(=C\c3cccc([N+](=O)[O-])c3)C2=O)c1OC`, for which the IC50 in assay [1] is 5.59 µg/mL (≈ 14.7 µM); in assay [2], 5.14 µg/mL (≈ 13.5 µM); in assay [3], 10.1 µg/mL (≈ 26.6 µM).

`O=C1/C(=C/c2cccc(Cl)c2)CCC/C1=C\c1cccc([N+](=O)[O-])c1`: the figures for the IC50 in assay [1], in assay [2] and in assay [3] were 5.01 µg/mL (≈ 14.2 µM), 5.15 µg/mL (≈ 14.6 µM) and 4.15 µg/mL (≈ 11.7 µM), respectively.

As to `COc1cccc(/C=C2\CCC/C(=C\c3cccc([N+](=O)[O-])c3)C2=O)c1`, the IC50 in assay [1] was 13.2 µg/mL (≈ 37.7 µM); in assay [2], 4.17 µg/mL (≈ 11.9 µM); in assay [3], 4.94 µg/mL (≈ 14.1 µM).

As to `COc1cc([C@@H]2c3cc4c(cc3[C@@H](O[C@@H]3O[C@@H]5CO[C@@H](C)O[C@H]5[C@H](O)[C@H]3O)[C@H]3COC(=O)[C@H]23)OCO4)cc(OC)c1O` [ETOPOSIDE], the 50% inhibitory concentration (IC50) in assay [1] came to 20.5 µg/mL (≈ 34.9 µM); in assay [2], 18.4 µg/mL (≈ 31.3 µM); in assay [3], 14 µg/mL (≈ 23.9 µM).

For the molecule `CCCOc1c(Br)cc(/C=C2\CCC/C(=C\c3ccc([N+](=O)[O-])cc3)C2=O)cc1OC`, the half-inhibitory concentration (IC50) was 4.01 µg/mL (≈ 8.24 µM) in assay [1], 7.98 µg/mL (≈ 16.4 µM) in assay [2] and 23.3 µg/mL (≈ 47.8 µM) in assay [3].

Consider `COc1cccc(/C=C2\CCC/C(=C\c3ccc([N+](=O)[O-])cc3)C2=O)c1`, for which the IC50 is 51.4 µg/mL (≈ 147 µM) in assay [1], 5.82 µg/mL (≈ 16.7 µM) in assay [2] and 11.5 µg/mL (≈ 33 µM) in assay [3].

In the case of `CCCCOc1c(Br)cc(/C=C2\CCC/C(=C\c3ccc([N+](=O)[O-])cc3)C2=O)cc1OC`, the half-maximal inhibitory concentration (IC50) in assay [1] was 8.38 µg/mL (≈ 16.7 µM); in assay [2], 27 µg/mL (≈ 54 µM); in assay [3], 41.3 µg/mL (≈ 82.6 µM).

On to `CCOc1c(Br)cc(/C=C2\CCC/C(=C\c3cccc([N+](=O)[O-])c3)C2=O)cc1OC`, for which the IC50 stood at 19.3 µg/mL (≈ 40.9 µM) in assay [1], 24.9 µg/mL (≈ 52.7 µM) in assay [2] and 10.8 µg/mL (≈ 22.8 µM) in assay [3].

Take `COc1ccc(/C=C2\CCC/C(=C\c3ccccc3[N+](=O)[O-])C2=O)cc1`: the IC50 in assay [1] was determined as 45 µg/mL (≈ 129 µM); in assay [2], 11.2 µg/mL (≈ 32.1 µM); in assay [3], 75 µg/mL (≈ 215 µM).

Take `CCCOc1c(Br)cc(/C=C2\CCC/C(=C\c3ccccc3[N+](=O)[O-])C2=O)cc1OC`: the “Ratio IC50” value in assay [5] was 10. Further, the results for the IC50 in assay [1], in assay [2] and in assay [3] were 1.99 µg/mL (≈ 4.09 µM), 4.14 µg/mL (≈ 8.51 µM) and 3.5 µg/mL (≈ 7.2 µM), respectively.

For the origin of these results see ChEMBL document CHEMBL1949511, “Asymmetrical 2,6-bis(benzylidene)cyclohexanones: Synthesis, cytotoxic activity and QSAR study” (Eur J Med Chem, 2012).
